Assays:
[1] = target: T1, PDK1 kinase (Homo sapiens, UniProt O15530); experiment: PDK1 Kinase Alpha Screen Assay; type: biochemical; conditions: PDK1 Kinase Alpha Screen Assay; read-out: PDK1 IC50
T1 sequence (O15530 1-556): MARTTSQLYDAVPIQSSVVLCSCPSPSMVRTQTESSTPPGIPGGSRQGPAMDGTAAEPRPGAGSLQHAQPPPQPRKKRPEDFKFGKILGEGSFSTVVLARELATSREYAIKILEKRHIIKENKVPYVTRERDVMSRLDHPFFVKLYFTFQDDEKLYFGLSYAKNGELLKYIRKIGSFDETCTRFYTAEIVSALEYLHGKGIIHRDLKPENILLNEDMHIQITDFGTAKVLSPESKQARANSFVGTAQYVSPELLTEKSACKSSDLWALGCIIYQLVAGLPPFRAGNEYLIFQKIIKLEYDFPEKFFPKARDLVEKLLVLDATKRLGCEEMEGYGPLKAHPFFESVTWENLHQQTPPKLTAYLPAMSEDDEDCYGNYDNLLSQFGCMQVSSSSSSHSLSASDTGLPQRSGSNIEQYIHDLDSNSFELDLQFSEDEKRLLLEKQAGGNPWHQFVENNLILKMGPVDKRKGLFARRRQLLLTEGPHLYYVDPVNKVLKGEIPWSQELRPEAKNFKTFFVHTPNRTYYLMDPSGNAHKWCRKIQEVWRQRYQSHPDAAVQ
Summary of the method: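 Kinase inhibition measured as loss of AlphaScreen signal from antibody recognition of phosphorylated biotin-PDK1-4 peptide. Reactions contain 10 uM ATP and 50 nM peptide, run 3-18 hours before EDTA quench and overnight bead development at room temperature.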

[2] = tested on: A2780 cells; experiment: Cell Proliferation Assay (Cell Titer Glo), A2780; type: cell-based; conditions: Homo sapiens; cell proliferation, A2780 cells; read-out: CPEC50 A2780
Summary of the method: (§1)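 Following a 3-day compound exposure (37° C., 5% CO2) of A2780 or PC3MM cells plated at 1000 per well, viability was measured by Cell Titer Glo luminescence in fresh medium, read 10 min after reagent addition.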

[3] = tested on: PC-3 cells; experiment: Cell Proliferation Assay (Cell Titer Glo), PC-3 cell line; type: cell-based; conditions: Homo sapiens, PC-3, cell proliferation, PC3 cells; read-out: CPEC50 PC3
Summary of the method: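 Cell Titer Glo luminescence, read after fresh medium replaced the dosing medium, gave viability of PC-3 cells plated at 1000 cells/well. Compounds, 1:3 serially diluted in DMSO at 500× and then in medium, were added after 3-5 h adhesion and incubated 3 days at 37° C.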

[4] = tested on: PC3MM cells; experiment: Cell Proliferation Assay (Cell Titer Glo), PC3MM; type: cell-based; conditions: cell proliferation, PC3MM cells; read-out: CPEC50 PC3MM
Summary of the method: as §1

Row | SMILES | IC50 [1] | EC50 [2] | EC50 [3] | EC50 [4]
1 | CC(C)NS(=O)(=O)c1ccc(Nc2ncc3cccc(OC4CCNCC4)c3n2)cc1 [Compound 779, N-isopropyl-4-(8-(piperidin-4-yloxy)quinazolin-2-ylamino)benzenesulfonamide] | < 5 µM | < 5 µM | < 5 µM | < 5 µM
2 | CC(C)CN1CCC(Oc2cccc3cnc(Nc4ccc(S(N)(=O)=O)cc4)nc23)CC1 [Compound 816, 4-(8-(1-isobutylpiperidin-4-yloxy)quinazolin-2-ylamino)benzenesulfonamide] | < 5 µM | < 5 µM | < 5 µM | < 5 µM
3 | CC(C)N1CCC(Oc2cccc3cnc(Nc4ccc(S(=O)(=O)N5CCOCC5)cc4)nc23)CC1 [Compound 772, 8-(1-isopropylpiperidin-4-yloxy)-N-(4-(morpholinosulfonyl)-phenyl)quinazolin-2-amine] | < 5 µM | < 5 µM | < 5 µM | < 5 µM
4 | NS(=O)(=O)c1ccc(Nc2ncc3cccc(O[C@@H]4CN5CCC4CC5)c3n2)cc1 [Compound 744, (S)-4-(8-(quinuclidin-3-yloxy)quinazolin-2-ylamino)benzenesulfonamide] | < 5 µM | < 5 µM | < 5 µM | < 5 µM
5 | NS(=O)(=O)c1ccc(Nc2ncc3cccc(-c4ccc(NCCN5CCCC5)nc4)c3n2)cc1 [Compound 830, 4-(8-(6-(2-(pyrrolidin-1-yl)ethylamino)pyridin-3-yl)-quinazolin-2-ylamino)benzenesulfonamide] | < 5 µM | < 5 µM | < 5 µM | < 5 µM
6 | CN1CCC(Oc2ccc3cnc(Nc4ccc(S(N)(=O)=O)cc4)nc3c2)CC1 [Compound 763, 4-(7-(1-methylpiperidin-4-yloxy)quinazolin-2-ylamino)benzenesulfonamide] | < 5 µM | < 5 µM | < 5 µM | < 5 µM
7 | CC(C)N1CCC(Oc2cccc3cnc(Nc4ccc(S(N)(=O)=O)cc4)nc23)CC1 [Compound 725, 4-(8-(1-isopropylpiperidin-4-yloxy)quinazolin-2-ylamino)benzenesulfonamide] | < 5 µM | < 5 µM | < 5 µM | < 5 µM
8 | NS(=O)(=O)c1ccc(Nc2ncc3cccc(OC4CCNCC4)c3n2)cc1 [Compound 718, 4-(8-(piperidin-4-yloxy)quinazolin-2-ylamino)benzenesulfonamide] | < 5 µM | < 5 µM | < 5 µM | < 5 µM
9 | CN1CCC(Nc2ccc3cnc(Nc4ccc(S(N)(=O)=O)cc4)nc3c2)CC1 [Compound 843, 4-(7-(1-methylpiperidin-4-ylamino)quinazolin-2-ylamino)benzenesulfonamide] | < 5 µM | < 5 µM | < 5 µM | < 5 µM
10 | CN1C2CCC1CC(Oc1cccc3cnc(Nc4ccc(S(N)(=O)=O)cc4)nc13)C2 (stereo not drawn) [Compound 749, 4-(8-(8-methyl-8-azabicyclo[3.2.1]octan-3-yloxy)quinazolin-2-ylamino)benzenesulfonamide] | < 5 µM | < 5 µM | < 5 µM | < 5 µM
11 | CN1CCN(c2ccc(-c3cccc4cnc(Nc5ccc(S(N)(=O)=O)cc5)nc34)cn2)CC1 [Compound 827, 4-(8-(6-(4-methylpiperazin-1-yl)pyridin-3-yl)quinazolin-2-ylamino)benzenesulfonamide] | < 5 µM | < 5 µM | < 5 µM | < 5 µM
12 | CC(C)N1CCC(Oc2ccc3cnc(Nc4ccc(S(N)(=O)=O)cc4)nc3c2)CC1 [Compound 794, 4-(7-(1-isopropylpiperidin-4-yloxy)quinazolin-2-ylamino)benzenesulfonamide] | < 5 µM | < 5 µM | < 5 µM | < 5 µM
13 | O=S(=O)(c1ccc(Nc2ncc3cccc(OC4CCNCC4)c3n2)cc1)N1CCOCC1 [Compound 771, N-(4-(morpholinosulfonyl)phenyl)-8-(piperidin-4-yloxy)quinazolin-2-amine] | < 5 µM | < 5 µM | < 5 µM | < 5 µM
14 | Cn1cc(-c2ccc3cnc(Nc4ccc(S(N)(=O)=O)cc4)nc3c2)cn1 [Compound 799, 4-(7-(1-methyl-1H-pyrazol-4-yl)quinazolin-2-ylamino)benzenesulfonamide] | < 5 µM | < 5 µM | < 5 µM | < 5 µM
15 | O=S(=O)(NC1CC1)c1ccc(Nc2ncc3cccc(OC4CCNCC4)c3n2)cc1 [Compound 781, N-cyclopropyl-4-(8-(piperidin-4-yloxy)quinazolin-2-ylamino)benzenesulfonamide] | < 5 µM | < 5 µM | < 5 µM | < 5 µM
16 | O=S(=O)(NCCN1CCCC1)c1ccc(Nc2ncc3cccc(OC4CCNCC4)c3n2)cc1 [Compound 810, 4-(8-(piperidin-4-yloxy)quinazolin-2-ylamino)-N-(2-(pyrrolidin-1-yl)ethyl)benzenesulfonamide] | < 5 µM | < 5 µM | < 5 µM | < 5 µM
17 | COCCNS(=O)(=O)c1ccc(Nc2ncc3cccc(OC4CCNCC4)c3n2)cc1 [Compound 780, N-(2-methoxyethyl)-4-(8-(piperidin-4-yloxy)quinazolin-2-ylamino)benzenesulfonamide] | < 5 µM | < 5 µM | < 5 µM | < 5 µM
18 | NS(=O)(=O)c1ccc(Nc2ncc3cc(Br)cc(OC4CCNCC4)c3n2)cc1 [Compound 846, 4-(6-bromo-8-(piperidin-4-yloxy)quinazolin-2-ylamino)benzenesulfonamide] | < 5 µM | < 5 µM | < 5 µM | < 5 µM
19 | CC(C)NC(=O)c1ccc(Nc2ncc3cccc(OC4CCN(C(C)C)CC4)c3n2)cc1 [Compound 797, N-isopropyl-4-(8-(1-isopropylpiperidin-4-yloxy)quinazolin-2-ylamino)benzamide] | < 5 µM | < 5 µM | < 5 µM | < 5 µM
20 | COCCNc1ccc(-c2cccc3cnc(Nc4ccc(S(N)(=O)=O)cc4)nc23)cn1 [Compound 825, 4-(8-(6-(2-methoxyethylamlno)pyridin-3-yl)quinazoln-2-ylamino)benzenesulfonamide] | < 5 µM | < 5 µM | < 5 µM | < 5 µM
21 | NS(=O)(=O)c1ccc(Nc2ncc3ccc(-c4cccnc4F)cc3n2)cc1 [Compound 800, 4-(7-(2-fluoropyridin-3-yl)quinazolin-2-ylamino)benzenesulfonamide] | < 5 µM | < 5 µM | < 5 µM | < 5 µM
22 | CC(C)N1CCC(c2c(O)ccc3cnc(Nc4ccc(S(N)(=O)=O)cc4)nc23)CC1 [Compound 795, 4-(7-hydroxy-8-(1-isopropylpiperidin-4-yl)quinazolin-2-ylamino)benzenesulfonamide] | < 5 µM | < 5 µM | < 5 µM | < 5 µM
23 | NS(=O)(=O)c1ccc(Nc2ncc3ccc(OC4CCNCC4)cc3n2)cc1 [Compound 750, 4-(7-(piperidin-4-yloxy)quinazolin-2-ylamino)benzenesulfonamide] | < 5 µM | < 5 µM | < 5 µM | < 5 µM
24 | NS(=O)(=O)c1ccc(Nc2ncc3cc(Br)cc(OC4CN5CCC4CC5)c3n2)cc1 (stereo not drawn) [Compound 847, 4-(6-bromo-8-(quinuclidin-3-yloxy)quinazolin-2-ylamino)benzenesulfonamide] | < 5 µM | < 5 µM | < 5 µM | < 5 µM
25 | CN(C)[C@@H]1CCN(C(=O)c2cccc3cnc(Nc4ccc(S(N)(=O)=O)cc4)nc23)C1 [Compound 804, (R)-4-(8-(3-(dimethylamino)pyrrolidine-1-carbonyl)quinazolin-2-ylamino)benzenesulfonamide] | < 5 µM | 5 to 10 µM | – | < 5 µM
